Measurements taken from patent US20230137491A1, “PEPTIDES AND USES THEREOF” (SINTICA BIOTECH SOCIETÀ A RESPONSABILITÀ LIMITATA …, priority 2020, published 2023).
Non-standard residues stand in square brackets, D forms with d. methoxy‑PEG 20 kDa = linear 20 kDa methoxy-PEG conjugated through D-Cys sulfur

What was measured:
[1] = system: melanoma cells derived from patient with BRAF mutation in zebrafish; test: Zebrafish xenotransplant with melanoma cells from a patient with BRAF mutation; type: in vivo; details: embryos with metastasis counted 5 days post injection, versus control
Method: FIG. 11. The peptide reduces initial metastasis formation in zebrafish injected with melanoma cells. Metastatic melanoma cells from a patient with BRAF mutation were treated with the peptide, DTIC, the peptide in combination with DTIC, DTIC alone, BRAF inhibitor or left untreated. They were stained with Vibrant Cell Labelling Solution (red) and injected into the yolk of transparent zebrafish larvae and monitored. The number of embryos with metastasis was counted at 5 days post injection.
The use of melanoma biopsies was approved by the ethical committee (Comitato Etico dell'Area Vasta Emilia Nord). Biopsies were taken from the University Hospital Policlinico of Modena and patient gave inform consent. […]
Zebrafish handling was performed at the Zebrafish Centre of the University of Padova, Italy, under ethical committee (OPBA) authorization 407/2015-PR. […] Zebrafishes were monitored daily and documented from 1 day post injection (dpi) up to 1 week (experimental endpoint). […]
For xenotransplantation, albino embryos were mechanically dechorionated at 2 days post-fertilisation, anesthetized with tricaine 0.16 mg/ml and placed along plastic lanes immersed in 2% methylcellulose/PBS. […] Stained cells were loaded in a glass capillary needle and microinjected into the yolk (about 50 cells/embryo), Xenotransplanted embryos were monitored daily and documented from one day post injection up to one week.

[2] = system: WM266-4 melanoma cell line; test: Annexin V staining by flow cytometry; type: cell-based, human; details: WM266-4, 24 h and 48 h, versus diluent
Method: FIG. 5. […] WM266-4 melanoma cell line was cultured and the rate of apoptosis measured after treatment with the peptide (XYZ) as compared to diluent at different time points by flow cytometry (A) counting % of cells in sub-G1 with propidium iodide staining or (B) counting % of Annexin positive cells staining. Student's t-test was used for comparison of the means
WM266-4 cell line was treated with the peptide (XYZ) or diluent at different time points. After 24 and 48 h, cells were trypsinised, collected by centrifugation and resuspended in 500 μL of binding buffer containing annexin V-FITC and propidium iodide (PI). After incubation at room temperature for 5 min in the dark, annexin V-FITC binding was analyzed by flow cytometry using FITC signal detector and PI staining by the phycoerythrin emission signal detector.
In particular, XYZ triggers melanoma apoptosis, a most well-known type of programmed cell death in culture. […] In details, melanoma cell lines, gently were trypsinised and washed once with serum-containing media before incubation with annexin V-FITC or with propidium iodide. 24 h and 48 h later, FITC signal detector or sub G0/G1 peak for annexin or PI staining respectively, were observed by flow cytometry.

CD1 mice = test: Acute toxicity testing (up and down procedure); type: in vivo; details: six CD1 mice, intravenous, 17.5 mg/kg to 1750 mg/kg, up to six days
Method: FIG. 10. No toxic effects in 6 mice treated with XYZ. Acute toxicity testing was performed in CD1 mice with different doses of XYZ up to six days after treatment. After one day of fasting, six mice were injected intravenously (28 G needle) through the tail vein with a total dose of 17.5, 175, 550 or 1750 mg/kg/mouse of XYZ in a physiological solution. 50 gr of food were available two hours later. The health status (coat and appearance) of mice was observed from the first day after treatment. (a) Mice were weighed prior to XYZ injection and then every day until the sixth day. The amount of ingested food (b) and drinking water (c) were measured.
Intravenous injections were performed in six CD1 mice (Charles River, Calco (MI) Italy) tails for administration from 17.5 mg/kg to 1750 mg/kg XYZ (FIG. 10).

## Ac-DMet-DLeu-Gly-DIle-DIle-DAla-Gly-DLys-DAsn-DSer-Gly-DCys-NH2 with a linear 20 kDa methoxy-PEG polymer conjugated to the D-Cys residue through the sulfur atom of the latter (Ac-[dM][dL]G[dI][dI][dA]G[dK][dN][dS]G[dC](methoxy‑PEG 20 kDa)-NH2) [XYZ]
[1]
  metastasis formation in zebrafish: reduces metastasis formation
[2]
  rate of apoptosis (Annexin staining): significantly higher rate of apoptosis than diluent alone
CD1 mice
  acute toxic effect (appearance, weight, water and food intake): did not show any acute toxic effect
